Values after ≈ are worked out from the molar mass of the structure shown.
Experiments:
[1] = test system: K. pneumoniae 81 KPC-3(+); assay: MIC of tested agent alone, microdilution; format: cell-based; conditions: Klebsiella pneumoniae; read-out: MIC of agent alone
Outline: (§1)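 Checkerboard microdilution; β-lactam 1–64 mg/L (7 two-fold steps) × agent/PBA 4–16 mg/L (3 two-fold steps). Agent-alone MIC by standard microdilution. FICI from first no-growth wells along growth interface.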

[2] = test system: K. pneumoniae 83 KPC-3(+), CTX-M-3(+); assay: MIC of tested agent alone, microdilution; format: cell-based; conditions: Klebsiella pneumoniae; read-out: MIC of agent alone
Outline: as §1

[3] = test system: K. pneumoniae ATCC BAA-1705 KPC-2(+); assay: MIC of tested agent alone, microdilution; format: cell-based; conditions: Klebsiella pneumoniae, ATCCBAA1705; read-out: MIC of agent alone
Outline: as §1

E. coli 76 KPC-2(+) = assay: MIC of tested agent alone, microdilution; format: cell-based; conditions: Escherichia coli; read-out: MIC of agent alone
Outline: as §1

E. coli 77 CMY-2(+) [4] = assay: MIC of tested agent alone, microdilution; format: cell-based; conditions: Escherichia coli; read-out: MIC of agent alone
Outline: as §1

[5] = test system: K. pneumoniae ATCC BAA 1705 KPC(+); assay: screening test of direct antimicrobial activity (STDA), disc-diffusion; format: cell-based; conditions: Klebsiella pneumoniae, BAA1705, - no zone, read-out: Diameter of inhibition zone around disc with tested agent; for zone of inhibition at 300 µg/disc: 0.3 mg per disc
Protocol: (§2) Prior to combination disc tests, screening tests of direct antimicrobial activity (STDA) of the tested agent against β-lactamase-producing strains were performed by the disc-diffusion method. Discs with 0.3 mg, 0.1 mg, and 0.03 mg of each agent were examined. The highest amount of an agent that caused no effect on bacterial growth was used in further experiments.

[6] = test system: K. pneumoniae ATCC 700603 ESBL(+); assay: as above; format: cell-based; conditions: Klebsiella pneumoniae, ATCC700603, - no zone, read-out: Diameter of inhibition zone around disc with tested agent; for zone of inhibition at 300 µg/disc: 0.3 mg per disc
Protocol: as §2

[7] = test system: P. aeruginosa MUW 700 AmpC(+); assay: as above; format: cell-based; conditions: Pseudomonas aeruginosa, - no zone, read-out: Diameter of inhibition zone around disc with tested agent; for zone of inhibition at 300 µg/disc: 0.3 mg per disc
Protocol: as §2

E. coli 77 CMY-2(+) [8] = assay: as above; format: cell-based; conditions: Escherichia coli, - no zone, read-out: Diameter of inhibition zone around disc with tested agent; for zone of inhibition at 300 µg/disc: 0.3 mg per disc
Protocol: as §2

[9] = test system: C. guilliermondii IBA 155; assay: antifungal activity (disc-diffusion, MIC, MFC); format: cell-based, Candida guilliermondii; conditions: Meyerozyma guilliermondii, IBA155; for zone of inhibition at 0.4 mg/disc: 0.4 mg per disc, 9 mm disc (fluconazole 0.025 mg, 6 mm disc), - no zone, read-out: Diameter of inhibition zone; for MIC: fluconazole by Etest
Outline: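 Disc-diffusion (0.4 mg compound per disc, DMSO solutions), MIC, and MBC for bacteria or MFC for yeasts, run per EUCAST and CLSI recommendations. References: nitrofurantoin for Gram-negative rods, linezolid for Gram-positive bacteria, fluconazole for fungi.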

[10] = test system: E. coli 76 KPC-2-positive; assay: checkerboard microdilution, antibiotic plus tested agent; format: cell-based, Escherichia coli
Outline: (§3)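 Chequerboard layout: tested agent in three two-fold steps (4–16 mg/L) crossed with seven β-lactam dilutions (1–64 mg/L), meropenem for KPC strains and ceftazidime for the cAmpC strain. FICI from first non-growth wells, off-scale MICs raised one doubling; ≤0.5 counts as synergy, >4 antagonism.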

[11] = test system: E. coli 77 CMY-2-positive; assay: as above; format: cell-based, Escherichia coli
Outline: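 Read-out is the antibiotic MIC with agent present, plus FICI = combined/alone MIC ratios summed for both partners. Meropenem pairs served for carbapenemase strains and ceftazidime pairs for the AmpC strain. Agent or PBA was tested at 4–16 mg/L.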

[12] = test system: P. aeruginosa MUW 700 cAmpC-positive; assay: combination disc test CDT-AmpC; format: cell-based; conditions: Pseudomonas aeruginosa, read-out: Diameter of inhibition zone, CAZ-30 disc with agent
[13] = test system: K. pneumoniae 83 KPC-3-positive, CTX-M-3-positive; assay: checkerboard microdilution, antibiotic plus tested agent; format: cell-based, Klebsiella pneumoniae
Outline: as §3

[14] = test system: K. pneumoniae ATCC BAA-1705 KPC-2-positive; assay: as above; format: cell-based, Klebsiella pneumoniae
Outline: as §3

[15] = test system: K. pneumoniae 81 KPC-3-positive; assay: as above; format: cell-based, Klebsiella pneumoniae
Outline: as §3

OB(O)c1cc(F)c(B(O)O)cc1F [1e]
MIC [1]: 200 µg/mL
MIC [2]: 200 µg/mL
MIC [3]: 200 µg/mL
MIC (E. coli 76 KPC-2(+)): 100 µg/mL
MIC (E. coli 77 CMY-2(+) [4]): 100 µg/mL
zone of inhibition at 300 µg/disc [5]: 15 mm
zone of inhibition at 300 µg/disc [6]: 14 mm
zone of inhibition at 300 µg/disc [7]: 14 mm
zone of inhibition at 300 µg/disc (E. coli 77 CMY-2(+) [8]): 18 mm
zone of inhibition at 0.4 mg/disc [9]: 16 mm
MIC [9]: > 400 µg/mL
Average FICI with ERT [10]: 0.39
Average FICI with IMI [10]: 0.51
Average FICI with MEM [10]: 0.51
The lowest FICI with ERT [10]: 0.29
The lowest FICI with IMI [10]: 0.41
The lowest FICI with MEM [10]: 0.41
Average FICI with ceftazidime [11]: 0.17
The lowest FICI with ceftazidime [11]: 0.14
zone of inhibition at 100 µg/disc ([12]; agent 0.1 mg per disc): 18 mm
Average FICI with ERT [13]: 0.63
Average FICI with IMI [13]: 0.55
Average FICI with MEM [13]: 0.63
The lowest FICI with ERT [13]: 0.33
The lowest FICI with IMI [13]: 0.52
The lowest FICI with MEM [13]: 0.33
Average FICI with ERT [14]: 0.88
Average FICI with IMI [14]: 0.71
Average FICI with MEM [14]: 0.46
The lowest FICI with ERT [14]: 0.58
The lowest FICI with IMI [14]: 0.54
The lowest FICI with MEM [14]: 0.33
Average FICI with ERT [15]: 0.55
Average FICI with IMI [15]: 0.38
Average FICI with MEM [15]: 0.46
The lowest FICI with ERT [15]: 0.52
The lowest FICI with IMI [15]: 0.29
The lowest FICI with MEM [15]: 0.33

OB(O)c1cc(F)ccc1F [7a, 2,5-difluorophenylboronic acid]
MIC [1]: 200 µg/mL
MIC [2]: 100 µg/mL
MIC [3]: 100 µg/mL
MIC (E. coli 76 KPC-2(+)): 100 µg/mL
MIC (E. coli 77 CMY-2(+) [4]): 100 µg/mL
zone of inhibition at 100 µg/disc ([5]; 0.1 mg per disc): 12 mm
zone of inhibition at 300 µg/disc [5]: 17 mm
zone of inhibition at 100 µg/disc ([6]; 0.1 mg per disc): 18 mm
zone of inhibition at 300 µg/disc [6]: 18 mm
zone of inhibition at 100 µg/disc ([7]; 0.1 mg per disc): 11 mm
zone of inhibition at 300 µg/disc [7]: 12 mm
zone of inhibition at 100 µg/disc (E. coli 77 CMY-2(+) [8]; 0.1 mg per disc): 13 mm
zone of inhibition at 300 µg/disc (E. coli 77 CMY-2(+) [8]): 18 mm
zone of inhibition at 0.4 mg/disc [9]: 33 mm
MIC [9]: 25 µg/mL (≈ 158 µM)
Average FICI with ERT [10]: 0.51
Average FICI with IMI [10]: 0.30
Average FICI with MEM [10]: 0.51
The lowest FICI with ERT [10]: 0.41
The lowest FICI with IMI [10]: 0.29
The lowest FICI with MEM [10]: 0.41
Average FICI with ceftazidime [11]: 0.17
The lowest FICI with ceftazidime [11]: 0.14
zone of inhibition at 30 µg/disc ([12]; agent 0.03 mg per disc): 17 mm
Average FICI with ERT [13]: 0.51
Average FICI with IMI [13]: 0.30
Average FICI with MEM [13]: 0.47
The lowest FICI with ERT [13]: 0.41
The lowest FICI with IMI [13]: 0.29
The lowest FICI with MEM [13]: 0.29
Average FICI with ERT [14]: 0.76
Average FICI with IMI [14]: 0.43
Average FICI with MEM [14]: 0.51
The lowest FICI with ERT [14]: 0.58
The lowest FICI with IMI [14]: 0.33
The lowest FICI with MEM [14]: 0.41
Average FICI with ERT [15]: 0.46
Average FICI with IMI [15]: 0.21
Average FICI with MEM [15]: 0.23
The lowest FICI with ERT [15]: 0.33
The lowest FICI with IMI [15]: 0.17
The lowest FICI with MEM [15]: 0.14
